# Values of other authors as cited in patent US9592318B2, “Topical analgesic composition” (Animal Ethics Pty Ltd, priority 2005, dated 2017).
# Legend:
# significant open wound = details: topical, FIG. 2 area '3'
# [1] = following injection
Compound,duration of anesthesia of open wound (significant open wound),duration of action [1] [h]
CCN(CC)CC(=O)Nc1c(C)cccc1C [Lignocaine],around 30 minutes,–
CCCCN1CCCCC1C(=O)Nc1c(C)cccc1C (centres unmarked) [bupivacaine],–,6 to 8
